Test results published in patent publication US12221649B2 (priority 2018, dated 2025).

What was measured:
[1] = target: T1, carboxypeptidase B (CPB) (Homo sapiens, UniProt P15086); type: biochemical; details: for fluorescence change on incubation with CPB: 10 μM probe in PBS(-), Ex/Em=355/460 nm
T1 sequence (P15086 111-417): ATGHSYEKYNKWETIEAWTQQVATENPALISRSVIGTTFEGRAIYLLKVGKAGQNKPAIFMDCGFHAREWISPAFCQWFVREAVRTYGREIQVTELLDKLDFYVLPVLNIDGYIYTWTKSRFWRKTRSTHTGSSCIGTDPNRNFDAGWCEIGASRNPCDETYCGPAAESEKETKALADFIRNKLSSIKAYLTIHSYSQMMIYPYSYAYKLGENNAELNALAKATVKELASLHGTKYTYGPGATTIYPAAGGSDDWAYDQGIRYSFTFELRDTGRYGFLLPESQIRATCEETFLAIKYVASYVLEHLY
Description: (§1) An enzyme assay using the synthesized Compounds A, B was performed. As a result, the fluorescence of Compounds A and B was increased by incubation with carboxypeptidase A (CPA) and carboxypeptidase B (CPB) which were the respective target enzymes, and the increase in fluorescence was suppressed by addition of (S)-benzylsuccinic acid and MGTA which were the respective inhibitors.
FIG. 3(a) illustrates a reaction scheme of Compound B and CPB. In FIG. 3(b), 10 μM Compound B in PBS (-) was incubated at 37° C. with 5 ng CPB in the presence or absence of 100 μM inhibitor (MGTA) containing 0.1% DMSO as a co-solvent. Ex/Em=355/460 nm. n=4.
An enzyme assay using the synthesized Compound C and CPB was performed.
(§2) FIG. 4(a) illustrates a reaction scheme of Compound C and CPB. In FIG. 4(b), 10 μM Compound C in PBS (-) was incubated at 37° C. in the presence or absence of 5 ng CPB containing 0.1% DMSO as a co-solvent. Ex/Em=355/460 nm. n=4. […] 10 μM Compound A or Compound C in PBS (-) was incubated at 37° C. in the absence of CPB. Ex/Em=355/460 nm. n=4.
(§3) Next, reactivity with CPB and the stability in a buffer solution having a pH of 7.4 were examined. As a result, it became clear that while HMRef-tSoul-AR caused a fluorescence increase of 3320 times by reaction with CPB, HMRef-tSoul-AR was stable for at least about 1 hour in the absence of enzyme. The results are illustrated in FIG. 5.
(§4) FIG. 5(a) illustrates a reaction scheme of HMRef-tSoul-AR and CPB. FIG. 5(b) illustrates the fluorescence increase of 1 μM HMRef-tSoul-AR in PBS (-) incubated with 30 μg CPB containing 0.1% DMSO as a co-solvent. Incubation was performed at 25° C. The excitation wavelength was 498 nm. FIG. 5(c) illustrates an absorption change of 1 μM HMRef-tSoul-AR in PBS (-) at 25° C. for 50 minutes.

[2] = test system: basic carboxypeptidase activity in breast cancer tissue; test: Fluorescence imaging of clinical specimens derived from breast cancer patients; design: species or system human
Description: Four specimens (IDC: invasive ductal carcinoma, 3 cases; DCIS: ductal carcinoma in situ, 1 case) derived from breast cancer patients were subjected to fluorescence imaging by applying HMRef-tSoul-AR to a tumor site and a normal site by the following procedure (FIG. 10).
HMRef-tSoul-AR was dissolved in PBS so as to have a final concentration of 50 μM (containing 1% DMSO), and applied to clinical specimens from breast cancer patients in the presence and absence of 100 μM MGTA. A fluorescence image was captured on Maestro in vivo imaging system (PerkinElmer, Inc., MA, USA), a 455 nm (435-480 nm) band pass filter was used as an excitation light filter, and a 490 nm long pass filter was used as a fluorescence filter.
When an increase was observed, in order to examine whether or not the increase was derived from basic carboxypeptidase activity, a group to which the inhibitor MGTA was added was also examined at the same time.

[3] = test system: MDCK cells expressing CPM; test: Live imaging of CPM activity in MDCK cells; type: cell-based
Description: Live imaging of the carboxypeptidase activity in living cells was performed using HMRef-tSoul-AR synthesized above. […] Since it has been reported that CPM is expressed as an active form on a cell membrane unlike CPB, addition of trypsin or the like is unnecessary.
Here, FIGS. 6(a) and 6(b) illustrate fluorescence images of the MDCK cells containing 10 μM HMRef-tSoul-AR in HBSS in the presence (a) or absence (b) of 10 μM MGTA. Ex/Em=488/500-550 nm laser output 5%, PMT 600 V. 10 μM Hoechst 33342 was co-incubated for focal plane correction. For imaging of a Hoechst signal, Ex/Em=405/430-460 nm. Laser output 3%, PMT 1000 V, SP8.
Here, FIG. 7 illustrates results of UPLC analysis of a medium of the MDCK cells incubated with 20 μM HMRef-tSoul-AR in the presence or absence of 10 μM MGTA. The MDCK cells were incubated with 20 μM HMRef-tSoul-AR in HBSS at 37° C. for 20 hours in the presence or absence of 10 μM MGTA. Elution was performed with a linear gradient of C/D=95/5 to 5/95 in 4 minutes and detected at 254 nm.

[4] = target: PSMA (Homo sapiens, UniProt Q04609); test: Enzyme assay of probes and PSMA (fluorescence increase); type: biochemical; details: 10 μM probe in TBS buffer, 37° C., 22 ng PSMA, Ex/Em=355/460 nm
Chain of PSMA (Q04609 whole entry): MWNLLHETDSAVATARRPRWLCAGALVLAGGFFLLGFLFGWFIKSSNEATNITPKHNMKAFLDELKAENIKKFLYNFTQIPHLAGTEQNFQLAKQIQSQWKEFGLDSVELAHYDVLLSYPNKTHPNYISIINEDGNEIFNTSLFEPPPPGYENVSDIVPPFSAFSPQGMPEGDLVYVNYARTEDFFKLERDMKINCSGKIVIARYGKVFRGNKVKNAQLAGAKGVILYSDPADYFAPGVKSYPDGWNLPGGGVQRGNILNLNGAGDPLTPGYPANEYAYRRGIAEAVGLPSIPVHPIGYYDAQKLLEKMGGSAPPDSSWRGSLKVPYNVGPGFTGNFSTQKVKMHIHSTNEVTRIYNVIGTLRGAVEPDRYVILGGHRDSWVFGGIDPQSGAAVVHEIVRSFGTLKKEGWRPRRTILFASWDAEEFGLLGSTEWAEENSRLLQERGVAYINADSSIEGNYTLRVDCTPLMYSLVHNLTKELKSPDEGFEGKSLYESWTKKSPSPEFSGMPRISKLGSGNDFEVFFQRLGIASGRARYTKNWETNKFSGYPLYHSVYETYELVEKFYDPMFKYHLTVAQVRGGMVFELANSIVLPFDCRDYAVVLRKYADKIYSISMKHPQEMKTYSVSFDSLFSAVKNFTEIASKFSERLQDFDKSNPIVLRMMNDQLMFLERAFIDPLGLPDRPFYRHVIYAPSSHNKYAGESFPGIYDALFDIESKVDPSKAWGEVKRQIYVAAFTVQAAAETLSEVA
Description: An enzyme assay was performed using the synthesized 4MU-tSoul-AE and PSMA.
An enzyme assay was performed using the synthesized 4MU-tSoul-GE and PSMA.
Here, FIG. 9(a) illustrates a reaction scheme of 4MU-tSoul-GE and PSMA. […] Ex/Em=355/460 nm. n=3.

[5] = target: T2, carboxypeptidase A (CPA) (Homo sapiens, UniProt P15085); test: Enzyme assay of Compound A and CPA (fluorescence increase); type: biochemical; details: 37° C.
T2 sequence (P15085 111-419): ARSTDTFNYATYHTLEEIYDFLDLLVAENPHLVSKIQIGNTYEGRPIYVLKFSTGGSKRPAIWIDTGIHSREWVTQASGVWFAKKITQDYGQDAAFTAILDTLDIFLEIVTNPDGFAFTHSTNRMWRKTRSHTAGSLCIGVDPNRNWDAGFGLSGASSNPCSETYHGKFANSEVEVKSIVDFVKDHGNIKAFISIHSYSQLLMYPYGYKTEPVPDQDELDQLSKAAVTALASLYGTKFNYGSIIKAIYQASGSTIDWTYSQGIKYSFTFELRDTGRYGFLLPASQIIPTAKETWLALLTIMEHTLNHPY
Description: An enzyme assay using the synthesized Compounds A, B was performed.
(§5) FIG. 2(a) illustrates a reaction scheme of Compound A and CPA. In FIG. 2(b), 10 μM Compound A in PBS (-) was incubated at 37° C. with 5 ng CPA activated by 1.5 μg trypsin in the presence or absence of 100 μM inhibitor ((S)-benzylsuccinic acid) containing 0.1% DMSO as a co-solvent. Ex/Em=355/460 nm. n=4. (In FIG. 2, Try represents trypsin, and SBSA represents (S)-benzylsuccinic acid.)

[6] = target: T3, trypsin (Bos taurus, UniProt P00760); test: Compound A with only trypsin added (control condition of the CPA assay); type: biochemical; details: 10 μM Compound A, no CPA
T3 construct: gene PRSS1
T3 sequence (P00760 24-246): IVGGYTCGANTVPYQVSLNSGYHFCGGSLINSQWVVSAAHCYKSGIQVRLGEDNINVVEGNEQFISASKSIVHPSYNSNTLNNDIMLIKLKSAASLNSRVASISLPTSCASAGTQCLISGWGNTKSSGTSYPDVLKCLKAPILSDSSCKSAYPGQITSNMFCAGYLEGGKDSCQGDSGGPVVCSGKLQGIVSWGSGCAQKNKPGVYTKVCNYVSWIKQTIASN
Description: as §1, §5

[7] = type: physicochemical; details: for fluorescence change in the absence of enzyme (non-enzymatic degradation): 10 μM probe in PBS(-), pH 7.4, 37° C., no enzyme
Description: as §1, §2, §3, §4

[8] = target: T4, CPB (Homo sapiens, UniProt P15086); test: Enzyme reaction rate parameters with CPB (fluorescence method, plate reader); type: biochemical; details: CPB 5 ng, 37° C., PBS pH 7.4, 20 μL, apparent
T4 sequence (P15086 111-417): T1 sequence (P15086 111-417)
Description: (§6) In addition, an enzyme reaction rate parameter was calculated.
(§7) All experiments were performed at 37° C. in a total volume of 20 μL of phosphate buffered saline (pH 7.4) containing DMSO as a co-solvent. 5 ng of CPB or CPM was added. An enzyme reaction initial rate was calculated from a fluorescence change at 535 nm using a plate reader (n=3). The excitation wavelength was 485 nm.

[9] = target: T5, carboxypeptidase M (CPM) (Homo sapiens, UniProt P14384); test: Enzyme reaction rate parameters with CPM (fluorescence method, plate reader); type: biochemical
T5 sequence (P14384 18-423): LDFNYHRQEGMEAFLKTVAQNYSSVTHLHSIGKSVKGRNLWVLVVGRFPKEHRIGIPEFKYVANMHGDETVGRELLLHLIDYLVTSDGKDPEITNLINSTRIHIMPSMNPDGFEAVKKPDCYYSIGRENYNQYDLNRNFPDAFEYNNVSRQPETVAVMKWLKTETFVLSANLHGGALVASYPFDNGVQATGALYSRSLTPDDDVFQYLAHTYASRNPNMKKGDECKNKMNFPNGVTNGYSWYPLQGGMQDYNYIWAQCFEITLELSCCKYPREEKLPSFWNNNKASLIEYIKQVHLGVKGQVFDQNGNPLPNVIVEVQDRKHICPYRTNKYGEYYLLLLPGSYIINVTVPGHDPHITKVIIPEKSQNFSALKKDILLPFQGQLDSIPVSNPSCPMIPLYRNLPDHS
Description: as §6, §7

[10] = CPM 5 ng, 37° C., PBS pH 7.4, 20 μL, apparent

SMILES: NC(N)=NCCSCC(CS)C(=O)O (stereo not shown) [MGTA, reference compound]
- effect of inhibitor on the increase in fluorescence of Compound B with CPB ([1]; 100 μM inhibitor, 10 μM Compound B, 5 ng CPB, 37° C.): suppressed
- effect of inhibitor on the increase in fluorescence of HMRef-tSoul-AR in breast cancer specimens ([2]; 100 μM inhibitor, 50 μM HMRef-tSoul-AR): suppressed
- effect of inhibitor on the increase in fluorescence of HMRef-tSoul-AR in MDCK cells ([3]; 10 μM inhibitor, 10 μM HMRef-tSoul-AR in HBSS): completely suppressed

SMILES: Cc1cc(=O)oc2cc(OP(=O)(N[C@@H](C)C(=O)N[C@@H](CCC(=O)O)C(=O)O)C(C)(C)C)ccc12 (stereo partly shown) [Compound 4MU-tSoul-AE]
- fluorescence change on incubation with PSMA [4]: the increase in fluorescence was not observed

SMILES: CCOP(=O)(N[C@@H](C)C(=O)N[C@@H](Cc1ccccc1)C(=O)O)Oc1ccc2c(C)cc(=O)oc2c1 (stereo partly shown) [Compound A]
- fluorescence change on incubation with CPA ([5]; 10 μM probe in PBS(-), 5 ng CPA activated by 1.5 μg trypsin, Ex/Em=355/460 nm): increased
- fluorescence change with only trypsin added [6]: a remarkable increase in fluorescence was not observed
- fluorescence change in the absence of enzyme (non-enzymatic degradation) [7]: gradually increased even slightly

SMILES: Cc1cc(=O)oc2cc(OP(=O)(NCC(=O)N[C@@H](CCC(=O)O)C(=O)O)C(C)(C)C)ccc12 (stereo partly shown) [Compound 4MU-tSoul-GE]
- fluorescence change on incubation with PSMA [4]: the increase in fluorescence was observed

SMILES: Cc1cc(=O)oc2cc(OP(=O)(N[C@@H](C)C(=O)N[C@@H](CCCNC(=N)N)C(=O)O)C(C)(C)C)ccc12 (stereo partly shown) [Compound C]
- fluorescence change on incubation with CPB ([1]; 37° C., 5 ng CPB): served as a substrate for CPB and showed the increase in fluorescence
- fluorescence change in the absence of enzyme (non-enzymatic degradation) [7]: no increase in fluorescence was observed

SMILES: O=C(O)C[C@H](Cc1ccccc1)C(=O)O [(S)-benzylsuccinic acid, reference compound]
- effect of inhibitor on the increase in fluorescence of Compound A with CPA ([5]; 100 μM inhibitor, 10 μM Compound A, 5 ng CPA): suppressed

SMILES: CCOP(=O)(N[C@@H](C)C(=O)N[C@@H](CCCNC(=N)N)C(=O)O)Oc1ccc2c(C)cc(=O)oc2c1 (stereo partly shown) [Compound B]
- fluorescence change on incubation with CPB ([1]; 37° C., 5 ng CPB): increased
- fluorescence change in the absence of enzyme (non-enzymatic degradation) [7]: gradually increased even slightly

SMILES: C[C@H](NP(=O)(Oc1ccc2c(c1)Oc1cc(NCC(F)(F)F)ccc1C21OCc2ccccc21)C(C)(C)C)C(=O)N[C@@H](CCCNC(=N)N)C(=O)O (stereo partly shown) [HMRef-tSoul-AR]
- Km [8]: 50 µM
- Vmax [8]: 1.2e-08 M/s
- kcat [8]: 1.7 s⁻¹
- fluorescence increase by reaction with CPB ([1]; 1 μM probe in PBS(-), 30 μg CPB, 25° C., excitation 498 nm): 3320 times
- substrate recognition by CPM [9]: served as a substrate
- Km [9, 10]: 61 µM
- Vmax [9, 10]: 4e-08 M/s
- kcat [9, 10]: 1.0 s⁻¹
- fluorescence from tumor tissue as compared with normal tissue ([2]; 50 μM probe in PBS (1% DMSO), four breast cancer specimens): remarkable increase in fluorescence
- fluorescence from MDCK cells over time ([3]; 10 μM probe in HBSS, Ex/Em=488/500-550 nm): an increase in fluorescence over time from the MDCK cells was observed
- generation of HMRef in external liquid of MDCK cells (UPLC) ([3]; 20 μM probe, HBSS, 37° C., 20 hours): HMRef was certainly generated
- time stable in the absence of enzyme ([7]; 1 μM probe, buffer pH 7.4, 25° C., absorption change): at least 1 hour
